From patent publication US20070032529A1, “Pyrazole compounds and their use as antidiabetes agents” (Japan Tobacco Inc., priority 2005, published 2007) come the findings set out here.

SMILES strings stand for the structures. Read-outs that look alike come from different tables or passages of the source.

The assay addresses T1, recombinant human liver glycogen phosphorylase (Homo sapiens, UniProt P06737).
T1 construct: made in house; host or cells: Sf9 insect cells (crude homogenate, diluted, used as the enzyme solution)
T1 sequence (P06737 1-847): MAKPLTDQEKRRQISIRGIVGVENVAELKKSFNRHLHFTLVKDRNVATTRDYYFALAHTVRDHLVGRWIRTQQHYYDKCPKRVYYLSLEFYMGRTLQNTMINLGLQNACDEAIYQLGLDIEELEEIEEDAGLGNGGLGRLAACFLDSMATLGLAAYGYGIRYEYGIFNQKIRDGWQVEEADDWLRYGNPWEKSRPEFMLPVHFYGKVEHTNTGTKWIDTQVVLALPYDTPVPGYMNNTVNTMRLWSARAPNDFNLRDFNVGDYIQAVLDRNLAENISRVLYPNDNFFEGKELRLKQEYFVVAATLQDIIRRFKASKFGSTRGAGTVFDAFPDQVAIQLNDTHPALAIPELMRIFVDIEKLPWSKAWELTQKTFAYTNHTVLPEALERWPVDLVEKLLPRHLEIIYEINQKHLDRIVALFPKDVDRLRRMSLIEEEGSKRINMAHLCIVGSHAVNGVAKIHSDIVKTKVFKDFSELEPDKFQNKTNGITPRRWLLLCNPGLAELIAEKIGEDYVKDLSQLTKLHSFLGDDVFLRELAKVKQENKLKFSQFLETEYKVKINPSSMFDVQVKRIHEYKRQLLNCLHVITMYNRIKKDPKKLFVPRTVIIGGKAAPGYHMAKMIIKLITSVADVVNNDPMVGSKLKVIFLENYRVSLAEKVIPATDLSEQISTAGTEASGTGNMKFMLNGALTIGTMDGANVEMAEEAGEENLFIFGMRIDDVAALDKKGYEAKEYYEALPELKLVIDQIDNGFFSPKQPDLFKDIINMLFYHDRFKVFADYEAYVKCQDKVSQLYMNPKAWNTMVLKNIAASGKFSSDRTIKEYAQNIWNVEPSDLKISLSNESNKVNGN
The assay can be described thus: Measuring liver glycogen phosphorylase activity (forward reaction system, NADPH absorbance at 340 nm). The class given is biochemical. The settings on record: for inhibition at 0.3 µM: compound concentration 300 nmol (in parentheses); for inhibition at 1 µM: compound concentration 1000 nmol (in parentheses). How it is done:
[Pharmacological Test] 1. Exemplary Test (1) Method for Measuring Liver Glycogen Phosphorylase Activity
The measurement of glycogen phosphorylase activity was carried out by a method using the forward reaction system.
The measurement of glycogen phosphorylase activity using the forward reaction system was carried out as follows. Glucose-1-phosphate prepared from glycogen by glycogen phosphorylase was converted into glucono-δ-lactone 6-phosphate through transphosphorylation and dehydrogenation using phosphoglucomutase and glucose-6-phosphate dehydrogenase (G6PDH). NADPH generated from NADP during the dehydrogenation by G6PDH was detected.
A homogenate of the Sf9 cells which expressed exogenously recombinant human liver glycogen phosphorylase was diluted with 100 mmol/LBES buffer solution (pH 6.8, containing 2 mmol/L EDTA) and the dilution was used as the enzyme solution of human liver glycogen phosphorylase. As the substrate, a phosphate buffer (containing 16 mmol/L KH2PO4, 24 mmol/L Na2HPO4) was used. A mixture of 8 U/mL phosphoglucomutase and 60 U/mL G6PDH was prepared in BES buffer solution. Buffer solution (containing 1.4 mmol/L NADP, 30 mmol/L MgCl2, 8 μmol/L glucose-1,6-diphosphate, 8 mg/mL glycogen, 40 mmol/LBES, 0.8 mmol/L EDTA) for reaction and a glucose solution (containing 75 mmol/L glucose, 100 mmol/LBES, 2 mmol/L EDTA) were prepared individually. The test compound was dissolved in 1% DMSO solution.
The enzymatic reaction was begun by adding 20 μL of the recombinant human liver glycogen phosphorylase solution and 20 μL of the mixture of phosphoglucomutase and G6PDH to the mixture of 20 μL of the glucose solution, 20 μL of the substrate, 100 μL of the buffer solution for reaction and 20 μL of the test compound solution. As control, 1% DMSO solution was added instead of the test compound. The mixture without the substrate was used as blank. The absorbance at 340 nm was measured immediately after the reaction started. The absorbance at 340 nm was measured again after reacting at room temperature for 75 minutes. The enzymatic activity is a value obtained by subtracting the blank variation in absorbance over 75 minutes from the variation in absorbance over 75 minutes.
The inhibition rate (%) of the test compound was calculated by the expression “(1-enzymatic activity of test compound/enzymatic activity of control)×100.”
A linear equation was determined from the two concentration points with the 50% inhibition rate therebetween, and the IC50 value was calculated from the concentration at the intersection of the line with the 50% inhibition rate.
“IC50” in the tables indicates the above-described enzyme inhibitory activity with respect to liver glycogen phosphorylase, and the activity to inhibit liver glycogen phosphorylase was represented as ++ when the IC50 value (nmol/L) was less than 100 nmol/L, as + when the IC50 value was between 100 nmol/L and 300 nmol/L. When IC50 is 300 nmol/L or more, an inhibition rate (%) at a certain concentration of the compound (I) of the present invention is shown in Tables. For example, when the inhibition rate is 20% at a concentration of 300 nmol, the rate is described as 20% (300).

The mark [1] stands for this setting: enzyme inhibitory activity with respect to liver glycogen phosphorylase, class symbols.
[2] abbreviates: human liver glycogen phosphorylase, class symbol.
Where [3] appears, read: read-out: inhibition rate (%) at a certain concentration.
[4] abbreviates: compound concentration 100 nmol (in parentheses), read-out: inhibition rate (%) at a certain concentration.
The mark [5] stands for this setting: figure in brackets (100), read-out: IC50: % value given with (100).
Where [6] appears, read: compound concentration 100 nmol (in parentheses).

The IC50 is the midpoint of a concentration-inhibition curve. In the case of `CCc1ccc(CNC(=O)c2cc(NC(=O)c3cc(F)c(F)cc3Cl)[nH]n2)cc1` [Example 1-34], the concentration for half-maximal inhibition (IC50) under setting [1] was less than 100 nM.

In the case of `CN(C)c1cccc(CNC(=O)c2cc(NC(=O)c3cc(F)c(F)cc3Cl)[nH]n2)c1` [Example 3-34], the IC50 under setting [1] was less than 100 nM. As for `CN(C(=O)c1cc(NC(=O)c2cc(F)c(N=[N+]=[N-])cc2Cl)[nH]n1)c1ccc(-c2nnn[nH]2)cc1` [Example 6-10], the half-inhibitory concentration (IC50) under setting [2] lay within 100 to 300 nM.

For the compound `CN1CCC(N(C)C(=O)c2cc(NC(=O)c3cc(F)c(F)cc3Cl)[nH]n2)CC1` [Example 1-83], the inhibition at 0.3 µM under setting [3] turned out to be 6.1%.

On to `O=C(Nc1cc(C(=O)N2C=Nc3cc(F)ccc3C2)n[nH]1)c1cc(F)c(F)cc1Cl` [Example 6-45], for which the IC50 under setting [2] is less than 100 nM. As for `Cc1nn(C)c(C)c1CNC(=O)c1cc(NC(=O)c2cc(F)c(F)cc2Cl)[nH]n1` [Example 1-55], under setting [1], the half-inhibitory concentration (IC50) was less than 100 nM.

For `O=C(NCCc1ccncc1)c1cc(NC(=O)c2cc(F)c(F)cc2Cl)[nH]n1` [Example 1-141], the inhibition at 0.1 µM under setting [4] was found to be 31.4%. In the case of `CCN(CC)C(=O)c1cccc(CNC(=O)c2cc(NC(=O)c3cc(F)c(F)cc3Cl)[nH]n2)c1` [Example 1-119], under setting [1], the concentration for half-maximal inhibition (IC50) lay within 100 to 300 nM. Consider `Nc1cc(F)c(F)cc1C(=O)Nc1cc(C(=O)NCc2cccnc2)n[nH]1` [Example 7-11], for which, under setting [5], the inhibition at 0.1 µM stood at 47.3%. As to `CCCCN(C(=O)c1cc(NC(=O)c2cc(F)c(F)cc2Cl)[nH]n1)c1ccc(C(=O)OCC)cc1` [Example 4-40], the inhibition at 0.3 µM under setting [3] was found to be 3.6%. Consider `CCN(CC)C(=O)c1cc(NC(=O)c2cc(F)c(F)cc2Cl)[nH]n1` [Example 1-4], for which the IC50 under setting [1] was less than 100 nM.

With `O=C(O)CNC(=O)c1ccc(CNC(=O)c2cc(NC(=O)c3cc(F)c(F)cc3Cl)[nH]n2)cc1` [Example 5-6], the IC50 under setting [1] is less than 100 nM. Regarding `O=C(N[C@@H](CO)c1ccccc1)c1cc(NC(=O)c2cc(F)c(F)cc2Cl)[nH]n1` [Example 3-22], the inhibition at 0.64 µM (compound concentration 640 nmol (in parentheses), read-out: inhibition rate (%) at a certain concentration) was 50%.

Regarding `COc1ccc(F)cc1C(=O)Nc1cc(C(=O)NCc2ccccc2)n[nH]1` [Example 4-16], the inhibition at 0.3 µM under setting [3] was determined as 5.1%. With `O=C(NCc1cnccn1)c1cc(NC(=O)c2cc(F)c(F)cc2Cl)[nH]n1` [Example 1-152], the IC50 under setting [1] was less than 100 nM. With `CC(=Nc1ccc(CNC(=O)c2cc(NC(=O)c3cc(F)c(F)cc3Cl)[nH]n2)cc1)N(C)C` [Example 6-26], the half-inhibitory concentration (IC50) under setting [2] is less than 100 nM. As for `O=C(NCc1cccc(C(F)(F)F)c1)c1cc(NC(=O)c2cc(F)c(F)cc2Cl)[nH]n1` [Example 1-28], under setting [1], the IC50 was less than 100 nM. Take `COC(=O)c1ccc(N(C)C(=O)c2cc(NC(=O)c3cc(F)c(F)cc3Cl)[nH]n2)cc1` [Example 4-1, methyl 5-(2-chloro-4,5-difluorobenzoylamino)-1H-pyrazole-3-carbocylic acid (4-methoxycarbonyl-phenyl)-methyl-amide]: the inhibition at 1 µM under setting [3] was determined as 13.8%. With `COC(=S)ON=C(N)c1ccc(N(C)C(=O)c2cc(NC(=O)c3cc(F)c(F)cc3Cl)[nH]n2)cc1` [Example 6-14], the inhibition at 0.1 µM under setting [5] turned out to be 20.1%.

With `O=C(NCc1ccccc1)c1cc(NC(=O)c2ccc(Cl)cc2Cl)[nH]n1` [Example 4-7], the IC50 under setting [1] is 100 to 300 nM. Consider `O=C(NCc1cccc(-c2ccccc2)c1)c1cc(NC(=O)c2cc(F)c(F)cc2Cl)[nH]n1` [Example 2-29], for which, under setting [4], the inhibition at 0.1 µM turned out to be 45.8%.

On to `CC(=O)OCCN(CCO)CCNC(=O)c1ccc(CNC(=O)c2cc(NC(=O)c3cc(F)c(F)cc3Cl)[nH]n2)cc1` [Example 1-49], for which, under setting [1], the IC50 was less than 100 nM.

As to `Cc1cc(Cl)ccc1C(=O)Nc1cc(C(=O)NCc2ccccc2)n[nH]1` [Example 4-15], under setting [1], the IC50 was in the range of 100 to 300 nM. `N/C(=N\O)c1cc(CNC(=O)c2cc(NC(=O)c3cc(F)c(F)cc3Cl)[nH]n2)ccn1` [Example 6-49]: the 50% inhibitory concentration (IC50) under setting [2] is less than 100 nM. As for `O=C(NCc1ccccc1)c1cc(NC(=O)c2cc(Cl)ccc2F)[nH]n1` [Example 4-20], the inhibition at 0.3 µM under setting [3] worked out at 3.3%. For `CCCCN(C(=O)c1cc(NC(=O)c2cc(F)c(F)cc2Cl)[nH]n1)c1ccc(CC(=O)OCC)cc1` [Example 4-45], the inhibition at 0.1 µM under setting [4] stood at 5.9%. `O=C(NCc1cccc(F)c1)c1cc(NC(=O)c2cc(F)c(F)cc2Cl)[nH]n1` [Example 1-9]: the half-maximal inhibitory concentration (IC50) under setting [1] was less than 100 nM. For the compound `O=C(NCc1ccccc1)c1cc(NC(=O)c2ccc(Cl)nc2Cl)[nH]n1` [Example 4-39], the inhibition at 0.3 µM under setting [3] was 5.3%. As for `CC(C)CN(C(=O)c1cc(NC(=O)c2cc(F)c(F)cc2Cl)[nH]n1)c1ccccc1` [Example 4-24], the 50% inhibitory concentration (IC50) under setting [1] lay within 100 to 300 nM. For the compound `CCOC(=O)C(C)(C)c1cnc(NC(=O)c2cc(NC(=O)c3cc(F)c(F)cc3Cl)[nH]n2)c(OCC)c1` [Example 1-149], the “inhibition rate (%) at a certain concentration” value under setting [6] is given as 20.8%(100).

With `CCCCN(C(=O)c1cc(NC(=O)c2cc(F)c(F)cc2Cl)[nH]n1)C1CCN(S(C)(=O)=O)CC1` [Example 1-111], the IC50 under setting [1] lay within 100 to 300 nM.

On to `CCN(CC)C(=O)c1ccc(CNC(=O)c2cc(NC(=O)c3cc(F)c(F)cc3Cl)[nH]n2)cc1` [Example 1-118], for which, under setting [1], the half-inhibitory concentration (IC50) is less than 100 nM. Turning to `O=C(NCc1ccc(Cl)s1)c1cc(NC(=O)c2cc(F)c(F)cc2Cl)[nH]n1` [Example 1-156], the half-inhibitory concentration (IC50) under setting [1] was less than 100 nM. As for `CCNC(=O)c1cccc(CNC(=O)c2cc(NC(=O)c3cc(F)c(F)cc3Cl)[nH]n2)c1` [Example 1-121], the 50% inhibitory concentration (IC50) under setting [1] was less than 100 nM. On the same count and under the same terms, the result for `Cc1nn(-c2ccccc2)nc1CNC(=O)c1cc(NC(=O)c2cc(F)c(F)cc2Cl)[nH]n1` [Example 1-61] reads less than 100 nM. As to `O=C(NC(c1ccccc1)c1ccccc1)c1cc(NC(=O)c2cc(F)c(F)cc2Cl)[nH]n1` [Example 3-19], the inhibition at 1 µM under setting [3] turned out to be 9.2%. In the case of `COCCN(C(=O)c1cc(NC(=O)c2cc(F)c(F)cc2Cl)[nH]n1)C1CCOCC1` [Example 1-97], the half-inhibitory concentration (IC50) under setting [1] was less than 100 nM.

As to `O=C(Nc1cccc2ncccc12)c1cc(NC(=O)c2cc(F)c(F)cc2Cl)[nH]n1` [Example 5-36], under setting [6], the “inhibition rate (%) at a certain concentration” value is listed as 17.8% (100).

For `CCN(CCN(C)C)C(=O)c1cc(NC(=O)c2cc(F)c(F)cc2Cl)[nH]n1` [Example 3-43], the inhibition at 0.3 µM under setting [3] worked out at 13.4%.

For the compound `O=C(NCc1cccnc1)c1cc(NC(=O)c2ccc(Cl)cc2Cl)[nH]n1` [Example 7-3], the IC50 under setting [2] is less than 100 nM. As to `COc1ccc(Cl)cc1C(=O)Nc1cc(C(=O)NCc2ccccc2)n[nH]1` [Example 4-17], the inhibition at 0.3 µM under setting [3] came out at 1.1%. Regarding `O=C(O)COc1ccccc1CNC(=O)c1cc(NC(=O)c2cc(F)c(F)cc2Cl)[nH]n1` [Example 3-48], the half-inhibitory concentration (IC50) under setting [1] is less than 100 nM. Consider `O=C(Nc1cccc2cccnc12)c1cc(NC(=O)c2cc(F)c(F)cc2Cl)[nH]n1` [Example 1-146], for which the inhibition at 0.1 µM under setting [4] was found to be 11.3%.
